“And” between values parts separate entries of the source, which are not always exact repeats. Equal entries are not always repeated. Where two headings read alike, the source gives them in different places.
Assays:
SARS-CoV-2 trVLP [1] = type: cell-based
[2] = tested on: SADS-CoV strain CN/GDWT/2017; assay: cells; type: cell-based, swine acute diarrhoea syndrome coronavirus (SADS-CoV)
[3] = tested on: SARS-CoV-2 pseudotyped virus; assay: microbe, parasite or virus in culture; type: cell-based
GX_P2V [4] = assay: organism not typed; type: cell-based, Guangxi pangolin-CoV (GX_P2V)
[5] = tested on: SARS-CoV pseudotyped virus; assay: microbe, parasite or virus in culture; type: cell-based; settings: for EC50: read-out: EC50 against SARS-CoV pseudotyped virus
SARS-CoV-2 trVLP [6] = tested on: SARS-CoV-2 trVLP
PEDV strain CV777 = assay: microbe, parasite or virus in culture; type: cell-based, porcine epidemic diarrhea virus (PEDV)
GX_P2V [7] = assay: microbe, parasite or virus in culture; type: cell-based, Guangxi pangolin-CoV (GX_P2V); settings: for inhibition at 0.79588 µM / inhibition at 1.09691 µM / inhibition at 1.39794 µM / inhibition at 1.69897 µM / inhibition at 0.193125 µM / inhibition at 0.39 µM / inhibition at 0.49485 µM / inhibition at 0.78 µM: Vero C1008, 48 h, read-out: Percentage of Inhibition (%)
[8] = tested on: MERS-CoV pseudotyped virus; assay: microbe, parasite or virus in culture; type: cell-based
in vitro [9] = settings: African green monkey
SARS-CoV-2 trVLP [10] = assay: microbe, parasite or virus in culture
[11] = tested on: SARS-CoV-2 live virus (SARS-CoV-2/WH-09/human/2020/CHN); assay: microbe, parasite or virus in culture; type: cell-based
in vitro [12] = settings: human
in vitro [13] = settings: human, Caco-2
[14] = Huh-7, read-out: EC50 against SADS-CoV
[15] = Severe acute respiratory syndrome coronavirus 2, 24 h, read-out: EC50 against SARS-CoV-2 pseudotyped virus
[16] = Severe acute respiratory syndrome coronavirus
[17] = Porcine epidemic diarrhea virus, Huh-7, read-out: EC50 against PEDV
[18] = Vero C1008, read-out: EC50 GX_P2V
[19] = Middle East respiratory syndrome-related coronavirus, Huh-7, read-out: EC50 against MERS-CoV pseudotyped virus
[20] = Severe acute respiratory syndrome coronavirus 2, read-out: EC50 SARS-CoV-2 trVLP
[21] = Severe acute respiratory syndrome coronavirus 2, Vero C1008, read-out: SARS-CoV-2 (Vero E6) EC50
[22] = CC50, cytotoxicity to Huh 7 cells (Fig. 4B, SADS-CoV panel)
[23] = Severe acute respiratory syndrome coronavirus 2, Vero C1008, read-out: EC50 against diverse SARS-CoV-2-related viruses (summary statement)
[24] = Vero C1008, read-out: EC50 against GX_P2V
[25] = Severe acute respiratory syndrome coronavirus 2, read-out: EC50 SARS-CoV-2pseudotypedvirus

Row | Compound | Time of addition of anti-SARS-CoV-2 trVLPs activity, Entry (SARS-CoV-2 trVLP [1]) | Time of addition of anti-SARS-CoV-2 trVLPs activity, Full-time (SARS-CoV-2 trVLP [1]) | Time of addition of anti-SARS-CoV-2 trVLPs activity, Post-entry (SARS-CoV-2 trVLP [1]) | EC50 [2, 14] [µM] | EC50 [3, 15] [µM] | Time of addition of anti-GX_P2V activity, Entry (GX_P2V [4]) | Time of addition of anti-GX_P2V activity, Full-time (GX_P2V [4]) | Time of addition of anti-GX_P2V activity, Post-entry (GX_P2V [4]) | EC50 [5, 16] [µM] | SI (SARS-CoV-2 trVLP, Caco 2-N) (SARS-CoV-2 trVLP [6]) | EC50 (PEDV strain CV777; [17]) [µM] | inhibition at 0.79588 µM (GX_P2V [7]) [%] | inhibition at 1.09691 µM (GX_P2V [7]) [%] | EC50 [8, 19] [µM] | CC50 at 48 h (in vitro [9]) [µM] | EC50 (SARS-CoV-2 trVLP [10]; [20]) [µM] | EC50 [11, 21] [µM] | CC50 (in vitro [12]; [22]) [µM] | CC50 at 48 h (in vitro [13]) [µM] | CC50 (in vitro [12]) [µM] | other results
1 | COc1cc2c3cc1Oc1c(OC)c(OC)cc4c1[C@@H](Cc1ccc(O)c(c1)Oc1ccc(cc1)C[C@@H]3N(C)CC2)N(C)CC4 [Berbamine, berbamine] | 49.832 and 46.966 and 50.173 | 90.853 and 91.022 and 89.926 | 85.087 and 83.404 and 83.155 | 5.84 | 1.87 | 53.007 and 53.569 and 52.218 | 99.845 and 99.848 and 99.866 | 93.479 and 93.373 and 93.128 | 5.55 | > 6.13 | 0.5 | 33.8 | 96.4 | 3.37 | > 50 | 8.15 | 19.9 | > 25 | > 50 | – | EC50 ([2]; Huh-7, read-out: EC50 SADS): 3.33 µM; inhibition at 1.39794 µM (GX_P2V [7]): 100%; inhibition at 1.69897 µM (GX_P2V [7]): 100%; EC50 (GX_P2V [7]; [18]): 6.92 µM; CC50 at 48 h (in vitro [12]): > 25 µM
2 | COc1ccc2cc1Oc1ccc(cc1)C[C@H]1c3c(cc4c(c3Oc3cc5c(cc3OC)CCN(C)[C@@H]5C2)OCO4)CCN1C [Cepharanthine, reference compound] | 63.189 and 64.430 and 67.089 | 95.064 and 95.621 and 95.146 | 74.095 and 72.335 and 71.421 | 1.03 | 0.74 | 88.370 and 86.873 and 86.696 | 99.145 and 99.093 and 99.139 | 88.656 and 88.646 and 88.662 | 1.37 | > 31.25 | 0.2 | 96.7 | 100 | 2.19 | > 12.5 | 1.6 | 2.19 | > 12.5 | > 50 | 11 | EC50 ([2]; Huh-7, read-out: EC50 SADS): 0.4 µM; Percentage of Inhibition (%) [5]: 99.382% and 89.647%; Percentage of Inhibition (%) (PEDV strain CV777): 99.988%; EC50 (GX_P2V [7]; [23]): < 2 µM; inhibition at 0.193125 µM (GX_P2V [7]): 46.4%; inhibition at 0.39 µM (GX_P2V [7]): 20.4%; inhibition at 0.49485 µM (GX_P2V [7]): 77.8%; EC50 (GX_P2V [7]; [24]): 1.78 µM; Percentage of Inhibition (%) [8]: 24.735%
3 | COc1cc2c(cc1O)[C@@H](Cc1ccc(O)c(Oc3ccc(C[C@@H]4c5cc(OC)c(OC)cc5CCN4C)cc3)c1)N(C)CC2 [Daurisoline, daurisoline] | 21.082 and 20.351 and 25.494 | 69.364 and 69.350 and 65.328 | 59.015 and 61.872 and 61.323 | 2.8 | – | 73.500 and 68.250 and 70.810 | 99.980 | 90.220 and 88.260 and 87.780 | 2.76 | > 35.21 | 0.82 | – | – | 2.46 | > 50 | – | 12.5 | – | > 50 | > 12.5 | EC50 [3, 25]: 8.48 µM; inhibition at 6.25 µM (GX_P2V [4]; Vero C1008, read-out: Inhibition against GX_P2V, full-time treatment): ~100%; inhibition at 0.193125 µM (GX_P2V [7]): 6.47%; inhibition at 0.78 µM (GX_P2V [7]): 63%; inhibition at 1.39794 µM (GX_P2V [7]): 100%; inhibition at 1.69897 µM (GX_P2V [7]): 100%; EC50 (GX_P2V [7]; [24]): ~14.1 µM; EC50 (GX_P2V [7]; Vero C1008, read-out: EC50 against GX_P2V, repeated experiment): 10.6 µM; EC50 (SARS-CoV-2 trVLP [10]; Severe acute respiratory syndrome coronavirus 2, read-out: EC50 against SARS-CoV-2 trVLP): 1.42 µM
4 | COc1ccc2cc1Oc1ccc(cc1)C[C@H]1c3cc(c(OC)cc3CCN1C)Oc1c(O)c(OC)cc3c1[C@H](C2)N(C)CC3 [Fangchinoline, fangchinoline] | 64.788 and 62.324 and 70.383 | 98.422 and 98.513 and 99.025 | 80.036 and 76.348 and 75.577 | 2.23 | 1.16 | 98.527 and 98.293 and 98.495 | 99.636 and 99.587 and 99.561 | 96.715 and 95.065 and 93.301 | 1.73 | 24.05 | 0.2 | 95.4 | 100 | 4.47 | > 12.5 | 1.93 | 5.01 | > 12.5 | 46.4 | 12.3 | Percentage of Inhibition (%), SARS-CoV-2 pseudotyped virus [3]: 100%; Percentage of Inhibition (%) (SARS-CoV-2 trVLP [6]): 100%; EC50 (GX_P2V [7]; [23]): < 2 µM; inhibition at 0.39 µM (GX_P2V [7]): 21%; inhibition at 0.49485 µM (GX_P2V [7]): 97.5%; inhibition at 0.78 µM (GX_P2V [7]): 14%; EC50 (GX_P2V [7]; [18]): 1.97 µM
5 | COc1ccc2cc1Oc1ccc(cc1)C[C@H]1c3cc(c(OC)cc3CCN1C)Oc1c(OC)c(OC)cc3c1[C@H](C2)N(C)CC3 [Tetrandrine, reference compound] | 36.455 and 44.889 and 48.206 | 99.957 and 99.767 and 99.878 | 89.364 and 97.266 and 89.859 | 2.19 | – | 99.931 and 99.920 | 99.968 and 99.974 and 99.976 | 99.868 and 99.847 and 99.852 | 3.04 | > 17.86 | 0.44 | 70.2 | 100 | 2.17 | 21.9 | 2.8 | 3.13 | > 12.5 | > 50 | 11.7 | EC50 [3, 25]: 3.2 µM; Percentage of Inhibition (%) [5]: 99.687%; inhibition at 0.49485 µM (GX_P2V [7]): 11.3%; inhibition at 1.39794 µM (GX_P2V [7]): 100%; inhibition at 1.69897 µM (GX_P2V [7]): 100%; EC50 (GX_P2V [7]; [18]): 5.21 µM; Percentage of Inhibition (%) [8]: 99.674% and 99.511%; CC50 (in vitro [9]): 21.9 µM
6 | cycleanine | 37.174 and 37.913 and 46.924 | 60.248 and 61.546 and 62.312 | 56.735 and 54.305 and 57.336 | – | – | 60.950 and 60.215 and 58.803 | 92.758 and 93.389 and 93.191 | 62.451 and 61.926 and 63.133 | – | > 32.68 | – | – | – | – | – | – | – | – | – | – | EC50 ([2]; read-out: EC50 against SADS-CoV): 2.77 µM; EC50 ([3]; read-out: EC50 SARS-CoV-2pseudotypedvirus): 6.54 µM; EC50 [5]: 3.2 µM; EC50 (SARS-CoV-2 trVLP [6]; read-out: EC50 SARS-CoV-2 trVLP): 1.53 µM; EC50 (PEDV strain CV777; read-out: EC50 against PEDV): 0.34 µM; Percentage of Inhibition (%) (GX_P2V [7]): 100%; EC50 (GX_P2V [7]; read-out: EC50 against GX_P2V): 1.49 µM; CC50 (Huh 7 cells): > 12.5 µM; EC50 ([8]; read-out: EC50 against MERS-CoV pseudotyped virus): 2.45 µM; EC50 ([11]; read-out: SARS-CoV-2 (Vero E6) EC50): 8.91 µM
